From PubChem BioAssay AID330 (DTP/NCI, 2004)
Values joined by “and” are separate entries in the source; they are usually repeats but may differ in a detail not shown here. Identical values can stand only once. Toxic doses and inconclusive results are not listed.

Tested on: P388 leukemia ip, CD2F1 mice, survival T/C
Test: NCI In Vivo Anticancer Drug Screen. Data for tumor model P388 Leukemia (intraperitoneal) in CD2F1 (CDF1) mice
Conditions: endpoint: median survival time, higher = longer survival
Procedure, shortened: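 Mice carrying the transplanted tumor received test compound or vehicle. Survival was recorded in each group, and the value is the treated-group measurement divided by that of the vehicle-treated control group.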

[1] = dose: 100.0 mg/kg/injection, schedule: Q04DX003 (ip), vehicle: saline
[2] = dose: 200.0 mg/kg/injection, schedule: Q04DX003 (ip), vehicle: saline
[3] = dose: 400.0 mg/kg/injection, schedule: Q04DX003 (ip), vehicle: saline
[4] = dose: 50.0 mg/kg/injection, schedule: Q01DX005 (ip), vehicle: saline
[5] = dose: 100.0 mg/kg/injection, schedule: Q01DX005 (ip), vehicle: saline
[6] = dose: 200.0 mg/kg/injection, schedule: Q01DX005 (ip), vehicle: saline
[7] = dose: 50.0 mg/kg/injection, schedule: Q01DX009 (ip), vehicle: saline
[8] = dose: 100.0 mg/kg/injection, schedule: Q01DX009 (ip), vehicle: saline
[9] = dose: 200.0 mg/kg/injection, schedule: Q01DX009 (ip), vehicle: saline
[10] = dose: 50.0 mg/kg/injection, schedule: Q04DX003 (ip), vehicle: saline with Tween-80
[11] = dose: 50.0 mg/kg/injection, schedule: Q01DX005 (ip), vehicle: saline with Tween-80
[12] = dose: 100.0 mg/kg/injection, schedule: Q01DX005 (ip), vehicle: saline with Tween-80
[13] = dose: 200.0 mg/kg/injection, schedule: Q01DX005 (ip), vehicle: saline with Tween-80

COc1cccc2c1C(=O)c1c(O)c3c(c(O)c1C2=O)C[C@@](O)(C(=O)CO)C[C@@H]3OC1CC(N2CCOCC2)C(O)C(C)O1 (stereo not given in full)
T/C (dose: 5.0 micrograms/kg/injection, schedule: Q04DX003 (ip), vehicle: water): 102 % of control
T/C (dose: 10.0 micrograms/kg/injection, schedule: Q04DX003 (ip), vehicle: water): 107 % of control
T/C (dose: 20.0 micrograms/kg/injection, schedule: Q04DX003 (ip), vehicle: water): 106 % of control
T/C (dose: 22.0 micrograms/kg/injection, schedule: Q04DX003 (iv), vehicle: saline + alcohol): 153 % of control
T/C (dose: 31.25 micrograms/kg/injection, schedule: Q04DX003 (ip), vehicle: water): 106 % of control
T/C (dose: 33.0 micrograms/kg/injection, schedule: Q04DX003 (iv), vehicle: saline + alcohol): 180 % of control
T/C (dose: 40.0 micrograms/kg/injection, schedule: Q04DX003 (ip), vehicle: water): 104 % of control
T/C (dose: 50.0 micrograms/kg/injection, schedule: Q04DX003 (iv), vehicle: saline + alcohol): 173 % of control
T/C (dose: 62.5 micrograms/kg/injection, schedule: Q04DX003 (ip), vehicle: water): 100 % of control
T/C (dose: 75.0 micrograms/kg/injection, schedule: Q04DX003 (iv), vehicle: saline + alcohol): 113 % of control
T/C (dose: 125.0 micrograms/kg/injection, schedule: Q04DX003 (ip), vehicle: water): 111 % of control
T/C (dose: 250.0 micrograms/kg/injection, schedule: Q04DX003 (ip), vehicle: water): 110 % of control
T/C (dose: 500.0 micrograms/kg/injection, schedule: Q04DX003 (ip), vehicle: water): 99 % of control

CCCCC1CN=C(OCC)N1 (stereo not given)
T/C (dose: 6.25 mg/kg/injection, schedule: Q01DX005 (ip), vehicle: saline with Tween-80): 104 % of control
T/C (dose: 12.5 mg/kg/injection, schedule: Q01DX005 (ip), vehicle: saline with Tween-80): 98 % of control

Cn1ccnc1C[Si](C)(C)C
T/C (dose: 45.5 mg/kg/injection, schedule: Q01DX005 (ip), vehicle: saline with Tween-80): 99 % of control
T/C (dose: 91.0 mg/kg/injection, schedule: Q01DX005 (ip), vehicle: saline with Tween-80): 107 % of control
T/C (dose: 182.0 mg/kg/injection, schedule: Q01DX005 (ip), vehicle: saline with Tween-80): 108 % of control

CC12CCCN1C(=O)C1(C)CCCN1C2=O (stereo not given)
T/C [1]: 101 % of control
T/C [2]: 98 % of control
T/C [3]: 97 % of control

CC12Cc3ccccc3CC1OCN1CN2COC2Cc3ccccc3CC21C (stereo not given)
T/C [4]: 105 % of control
T/C [5]: 98 % of control
T/C [6]: 90 % of control

NC(CC(=O)CCl)C(=O)O (stereo not given)
T/C (dose: 5.0 mg/kg/injection, schedule: Q01DX009 (ip), vehicle: saline with Tween-80): 154 % of control
T/C (dose: 6.25 mg/kg/injection, schedule: Q04DX003 (ip), vehicle: saline): 150 % of control
T/C (dose: 10.0 mg/kg/injection, schedule: Q01DX009 (ip), vehicle: saline with Tween-80): 168 % of control
T/C (dose: 12.5 mg/kg/injection, schedule: Q04DX003 (ip), vehicle: saline): 166 % of control
T/C (dose: 20.0 mg/kg/injection, schedule: Q01DX009 (ip), vehicle: saline with Tween-80): 159 % of control
T/C (dose: 50.0 mg/kg/injection, schedule: Q04DX003 (ip), vehicle: saline): 176 % of control

CC(Oc1ccccc1)C(=O)N=c1scc(-c2ccc(Br)cc2)n1-c1cccc2ccccc12 (stereo not given)
T/C (dose: 6.25 mg/kg/injection, schedule: Q01DX009 (ip), vehicle: gum acacia): 106 % of control
T/C (dose: 12.5 mg/kg/injection, schedule: Q01DX009 (ip), vehicle: gum acacia): 106 % of control
T/C (dose: 25.0 mg/kg/injection, schedule: Q01DX009 (ip), vehicle: gum acacia): 105 % of control
T/C (dose: 50.0 mg/kg/injection, schedule: Q01DX009 (ip), vehicle: gum acacia): 101 % of control
T/C (dose: 100.0 mg/kg/injection, schedule: Q01DX009 (ip), vehicle: gum acacia): 92 % of control
T/C (dose: 200.0 mg/kg/injection, schedule: Q01DX009 (ip), vehicle: gum acacia): 98 % of control

COc1cc(C2OCCO2)cc(OC)c1O
T/C [7]: 97 % of control
T/C [8]: 105 % of control
T/C [9]: 101 % of control

C1CC[N+]2(CC1)CCCCC2
T/C (dose: 6.25 mg/kg/injection, schedule: Q01DX009 (ip), vehicle: saline): 100 % of control
T/C (dose: 12.5 mg/kg/injection, schedule: Q01DX009 (ip), vehicle: saline): 100 % of control
T/C (dose: 25.0 mg/kg/injection, schedule: Q01DX009 (ip), vehicle: saline): 108 % of control
T/C [7]: 98 % of control

CC[C@@]1(O)C[C@H](OC2CC(N(C)C)C(OC3CC(O)C(OC4CC(O)C(O)C(C)O4)C(C)O3)C(C)O2)c2c(cc3c(c2O)C(=O)c2c(O)ccc(O)c2C3=O)[C@H]1C(=O)OC (stereo not given in full)
T/C (dose: 1.8 mg/kg/injection, schedule: Q04DX003 (ip), vehicle: water): 157 % of control
T/C (dose: 2.7 mg/kg/injection, schedule: Q04DX003 (ip), vehicle: water): 155 % of control
T/C (dose: 3.8 mg/kg/injection, schedule: Q01DX001 (ip), vehicle: other): 163 % of control
T/C (dose: 7.5 mg/kg/injection, schedule: Q01DX001 (ip), vehicle: other): 157 % of control

CCCCCCCCCCCCCCCC(=O)N(CCCCN(C(=O)CCCCCCCCCCCCCCC)C(C)CCCN(CC)CC)C(C)CCCN(CC)CC (stereo not given)
T/C (dose: 25.0 mg/kg/injection, schedule: Q01DX009 (ip), vehicle: other): 93 % of control
T/C (dose: 50.0 mg/kg/injection, schedule: Q01DX009 (ip), vehicle: other): 93 % of control

C=CCC1(CCC#N)C(=O)CC(C)(C)CC1=O
T/C [1]: 104 % of control
T/C [2]: 99 % of control
T/C [3]: 98 % of control

NC(=O)SCC(N)C(=O)O (stereo not given)
T/C (dose: 50.0 mg/kg/injection, schedule: Q01DX009 (ip), vehicle: saline with Tween-80): 111 % of control
T/C [7]: 108 % of control
T/C (dose: 50.0 mg/kg/injection, schedule: Q01DX009 (ip), vehicle: suspension in saline): 108 % of control
T/C (dose: 100.0 mg/kg/injection, schedule: Q01DX009 (ip), vehicle: saline with Tween-80): 114 % of control and 119 % of control
T/C (dose: 100.0 mg/kg/injection, schedule: Q01DX009 (ip), vehicle: suspension in saline): 121 % of control
T/C (dose: 400.0 mg/kg/injection, schedule: Q01DX009 (ip), vehicle: saline with Tween-80): 101 % of control
T/C (dose: 400.0 mg/kg/injection, schedule: Q01DX009 (ip), vehicle: saline): 98 % of control and 93 % of control

CC(=O)OC(=O)C(NC(=O)C(N)CC(C)C)C(C)C (stereo not given)
T/C [7]: 103 % of control
T/C [8]: 94 % of control
T/C [9]: 100 % of control

COc1nc(NC(C)C)nc(NC(C)C)n1
T/C [10]: 87 % of control
T/C (dose: 100.0 mg/kg/injection, schedule: Q04DX003 (ip), vehicle: saline with Tween-80): 95 % of control
T/C (dose: 200.0 mg/kg/injection, schedule: Q04DX003 (ip), vehicle: saline with Tween-80): 104 % of control

C=CCc1ccccc1NC(C)C(=O)OCC (stereo not given)
T/C [11]: 107 % of control
T/C [12]: 107 % of control
T/C [13]: 107 % of control

COC1NC(=O)N(C)N(C)C1=O (stereo not given)
T/C [4]: 100 % of control
T/C [5]: 99 % of control
T/C [6]: 100 % of control

c1ccc(C2=N[C@@H](N3CCCCC3)[C@H](N3CCCCC3)N2c2ccccc2)cc1
T/C (dose: 50.0 mg/kg/injection, schedule: Q01DX005 (ip), vehicle: Klucel (hydroxypropylcellulose) (HPC)): 105 % of control
T/C (dose: 100.0 mg/kg/injection, schedule: Q01DX005 (ip), vehicle: Klucel (hydroxypropylcellulose) (HPC)): 100 % of control
T/C (dose: 200.0 mg/kg/injection, schedule: Q01DX005 (ip), vehicle: Klucel (hydroxypropylcellulose) (HPC)): 98 % of control

C(=Nc1ccc2c(c1)Cc1ccccc1-2)c1ccc2ccccc2c1
T/C (dose: 400.0 mg/kg/injection, schedule: Q04DX002 (ip), vehicle: saline): 90 % of control

COC(=O)C1=CN(C)C(c2ccccc2)C=C1 (stereo not given)
T/C [11]: 103 % of control
T/C [12]: 107 % of control
T/C [13]: 112 % of control

CCCCC1(CC)COC(C)(c2ccccc2)OC1 (stereo not given)
T/C (dose: 75.0 mg/kg/injection, schedule: Q01DX009 (ip), vehicle: saline): 112 % of control
T/C (dose: 150.0 mg/kg/injection, schedule: Q01DX009 (ip), vehicle: saline): 110 % of control
T/C (dose: 300.0 mg/kg/injection, schedule: Q01DX009 (ip), vehicle: saline): 108 % of control

Cn1cnc2ncnc(NCc3ccccc3Cl)c21
T/C (dose: 6.25 mg/kg/injection, schedule: Q04DX003 (ip), vehicle: saline with Tween-80): 93 % of control
T/C (dose: 12.5 mg/kg/injection, schedule: Q04DX003 (ip), vehicle: saline with Tween-80): 94 % of control
T/C (dose: 25.0 mg/kg/injection, schedule: Q04DX003 (ip), vehicle: saline with Tween-80): 94 % of control
T/C [10]: 91 % of control
